HELM strings list units from the 5' end as sugar, base in round brackets, then linkage (d deoxyribose, r ribose, m 2'-O-methyl, p phosphodiester). Strings are as the collection lists them; they lack the last nucleoside at the 3' end of the tested compound. [moe] = 2'-O-(2-methoxyethyl) (MOE); [sp] = phosphorothioate linkage; [m5C] = 5-methylcytosine
Molecular target: C9ORF72
Test: mouse, dose not given
Conditions: ASO

Row | Substance | 3 h FOB score
1 | RNA1{[moe](G)[sp].[moe]([m5C])[sp].[moe]([m5C])[sp].[moe](T)[sp].[moe](T)[sp].d(A)[sp].d([m5C])[sp].d(T)[sp].d([m5C])[sp].d(T)[sp].d(A)[sp].d(G)[sp].d(G)[sp].d(A)[sp].d([m5C])[sp].[moe]([m5C])[sp].[moe](A)[sp].[moe](A)[sp].[moe](G)}$$$$ (last 3' nucleoside missing) | 7 score 0-7
2 | RNA1{[moe](G)[sp].[moe]([m5C])p.[moe](T)p.[moe](G)[sp].d([m5C])[sp].d(G)[sp].d(G)[sp].d(T)[sp].d(T)[sp].d(G)[sp].d(T)[sp].d(T)[sp].[moe](T)p.[moe]([m5C])p.[moe]([m5C])p.[moe]([m5C])[sp].[moe](T)}$$$$ (last 3' nucleoside missing) | 5 score 0-7
3 | RNA1{[moe](G)[sp].[moe]([m5C])p.[moe](T)p.[moe](G)p.[moe]([m5C])p.[moe](G)[sp].d(G)[sp].d(T)[sp].d(T)[sp].d(G)[sp].d(T)[sp].d(T)[sp].d(T)[sp].d([m5C])[sp].[moe]([m5C])p.[moe]([m5C])[sp].[moe](T)}$$$$ (last 3' nucleoside missing) | 5.5 score 0-7
4 | RNA1{[moe](G)[sp].[moe]([m5C])p.[moe]([m5C])[sp].d(T)[sp].d(T)[sp].d(A)[sp].d([m5C])[sp].d(T)[sp].d([m5C])[sp].d(T)[sp].d(A)[sp].[moe](G)p.[moe](G)p.[moe](A)p.[moe]([m5C])p.[moe]([m5C])[sp].[moe](A)}$$$$ (last 3' nucleoside missing) | 1.25 score 0-7
5 | RNA1{[moe](G)[sp].[moe]([m5C])p.[moe]([m5C])p.[moe](T)[sp].d(T)[sp].d(A)[sp].d([m5C])[sp].d(T)[sp].d([m5C])[sp].d(T)[sp].d(A)[sp].d(G)[sp].[moe](G)p.[moe](A)p.[moe]([m5C])p.[moe]([m5C])[sp].[moe](A)}$$$$ (last 3' nucleoside missing) | 0.25 score 0-7
6 | RNA1{[moe](G)[sp].[moe]([m5C])p.[moe]([m5C])p.[moe](T)p.[moe](T)p.[moe](A)[sp].d([m5C])[sp].d(T)[sp].d([m5C])[sp].d(T)[sp].d(A)[sp].d(G)[sp].d(G)[sp].d(A)[sp].[moe]([m5C])p.[moe]([m5C])[sp].[moe](A)}$$$$ (last 3' nucleoside missing) | 1 score 0-7
7 | RNA1{[moe](G)[sp].[moe]([m5C])p.[moe]([m5C])p.[moe](T)p.[moe](T)p.[moe](A)p.[moe]([m5C])[sp].d(T)[sp].d([m5C])[sp].d(T)[sp].d(A)[sp].d(G)[sp].d(G)[sp].d(A)[sp].d([m5C])[sp].[moe]([m5C])[sp].[moe](A)}$$$$ (last 3' nucleoside missing) | 2.5 score 0-7
8 | RNA1{[moe](G)[sp].[moe]([m5C])p.[moe]([m5C])p.[moe](T)p.[moe](T)p.[moe](A)p.[moe]([m5C])p.d(T)[sp].d([m5C])[sp].d(T)[sp].d(A)[sp].d(G)[sp].d(G)[sp].d(A)[sp].d([m5C])[sp].d([m5C])[sp].d(A)[sp].[moe](A)[sp].[moe](G)}$$$$ (last 3' nucleoside missing) | 3.25 score 0-7
9 | RNA1{[moe](G)[sp].[moe]([m5C])p.[moe]([m5C])p.[moe](T)p.[moe](T)p.[moe](A)p.d([m5C])[sp].d(T)[sp].d([m5C])[sp].d(T)[sp].d(A)[sp].d(G)[sp].d(G)[sp].d(A)[sp].d([m5C])[sp].d([m5C])[sp].[moe](A)p.[moe](A)[sp].[moe](G)}$$$$ (last 3' nucleoside missing) | 2.25 score 0-7
10 | RNA1{[moe](G)[sp].[moe]([m5C])p.[moe]([m5C])p.[moe](T)p.d(T)[sp].d(A)[sp].d([m5C])[sp].d(T)[sp].d([m5C])[sp].d(T)[sp].d(A)[sp].d(G)[sp].d(G)[sp].d(A)[sp].[moe]([m5C])p.[moe]([m5C])p.[moe](A)p.[moe](A)[sp].[moe](G)}$$$$ (last 3' nucleoside missing) | 5.75 score 0-7
11 | RNA1{[moe](G)[sp].[moe]([m5C])p.[moe]([m5C])p.[moe]([m5C])[sp].d([m5C])[sp].d(T)[sp].d(A)[sp].d(G)[sp].d([m5C])[sp].d(G)[sp].d([m5C])[sp].d(G)[sp].[moe]([m5C])p.[moe](G)p.[moe](A)p.[moe]([m5C])[sp].[moe](T)}$$$$ (last 3' nucleoside missing) | 1.5 score 0-7
12 | RNA1{[moe](G)[sp].[moe]([m5C])p.[moe]([m5C])p.[moe]([m5C])p.[moe]([m5C])p.[moe](T)[sp].d(A)[sp].d(G)[sp].d([m5C])[sp].d(G)[sp].d([m5C])[sp].d(G)[sp].d([m5C])[sp].d(G)[sp].[moe](A)p.[moe]([m5C])[sp].[moe](T)}$$$$ (last 3' nucleoside missing) | 1 score 0-7
13 | RNA1{[moe](G)[sp].[moe]([m5C])p.[moe]([m5C])p.[moe]([m5C])p.[moe]([m5C])p.[moe](T)p.d(A)[sp].d(G)[sp].d([m5C])[sp].d(G)[sp].d([m5C])[sp].d(G)[sp].d([m5C])[sp].d(G)[sp].d(A)[sp].d([m5C])[sp].[moe](T)p.[moe]([m5C])[sp].[moe]([m5C])}$$$$ (last 3' nucleoside missing) | 0 score 0-7
14 | RNA1{[moe](G)[sp].[moe]([m5C])p.[moe]([m5C])p.[moe]([m5C])p.d([m5C])[sp].d(T)[sp].d(A)[sp].d(G)[sp].d([m5C])[sp].d(G)[sp].d([m5C])[sp].d(G)[sp].d([m5C])[sp].d(G)[sp].[moe](A)p.[moe]([m5C])p.[moe](T)p.[moe]([m5C])[sp].[moe]([m5C])}$$$$ (last 3' nucleoside missing) | 1.25 score 0-7
15 | RNA1{[moe](G)[sp].[moe]([m5C])p.[moe]([m5C])p.d(T)[sp].d(T)[sp].d(A)[sp].d([m5C])[sp].d(T)[sp].d([m5C])[sp].d(T)[sp].d(A)[sp].d(G)[sp].d(G)[sp].[moe](A)p.[moe]([m5C])p.[moe]([m5C])p.[moe](A)p.[moe](A)[sp].[moe](G)}$$$$ (last 3' nucleoside missing) | 2 score 0-7
16 | RNA1{[moe](T)[sp].[moe](A)[sp].[moe]([m5C])[sp].[moe](A)[sp].[moe](G)[sp].d(G)[sp].d([m5C])[sp].d(T)[sp].d(G)[sp].d([m5C])[sp].d(G)[sp].d(G)[sp].d(T)[sp].d(T)[sp].d(G)[sp].[moe](T)[sp].[moe](T)[sp].[moe](T)[sp].[moe]([m5C])}$$$$ (last 3' nucleoside missing) | 7 score 0-7
17 | RNA1{[moe](T)[sp].[moe](G)p.[moe](G)p.[moe](T)[sp].d(T)[sp].d(A)[sp].d(A)[sp].d(T)[sp].d([m5C])[sp].d(T)[sp].d(T)[sp].d(T)[sp].[moe](A)p.[moe](T)p.[moe]([m5C])p.[moe](A)[sp].[moe](G)}$$$$ (last 3' nucleoside missing) | 3.25 score 0-7
18 | RNA1{[moe](T)[sp].[moe](G)p.[moe](G)p.[moe](T)p.[moe](T)p.[moe](A)[sp].d(A)[sp].d(T)[sp].d([m5C])[sp].d(T)[sp].d(T)[sp].d(T)[sp].d(A)[sp].d(T)[sp].[moe]([m5C])p.[moe](A)[sp].[moe](G)}$$$$ (last 3' nucleoside missing) | 6.25 score 0-7
19 | RNA1{[moe](T)[sp].[moe](G)p.[moe](G)p.[moe](T)p.[moe](T)p.[moe](A)p.[moe](A)p.d(T)[sp].d([m5C])[sp].d(T)[sp].d(T)[sp].d(T)[sp].d(A)[sp].d(T)[sp].d([m5C])[sp].d(A)[sp].d(G)[sp].[moe](G)[sp].[moe](T)}$$$$ (last 3' nucleoside missing) | 3.75 score 0-7
20 | RNA1{[moe](T)[sp].[moe](G)p.[moe](G)p.[moe](T)p.[moe](T)p.[moe](A)p.d(A)[sp].d(T)[sp].d([m5C])[sp].d(T)[sp].d(T)[sp].d(T)[sp].d(A)[sp].d(T)[sp].d([m5C])[sp].d(A)[sp].[moe](G)p.[moe](G)[sp].[moe](T)}$$$$ (last 3' nucleoside missing) | 1 score 0-7
21 | RNA1{[moe](T)[sp].[moe](G)p.[moe](G)p.[moe](T)p.d(T)[sp].d(A)[sp].d(A)[sp].d(T)[sp].d([m5C])[sp].d(T)[sp].d(T)[sp].d(T)[sp].d(A)[sp].d(T)[sp].[moe]([m5C])p.[moe](A)p.[moe](G)p.[moe](G)[sp].[moe](T)}$$$$ (last 3' nucleoside missing) | 1 score 0-7
22 | RNA1{[moe](T)[sp].[moe](G)p.[moe](G)p.d(T)[sp].d(T)[sp].d(A)[sp].d(A)[sp].d(T)[sp].d([m5C])[sp].d(T)[sp].d(T)[sp].d(T)[sp].d(A)[sp].[moe](T)p.[moe]([m5C])p.[moe](A)p.[moe](G)p.[moe](G)[sp].[moe](T)}$$$$ (last 3' nucleoside missing) | 0.25 score 0-7
23 | RNA1{[moe](T)[sp].[moe]([m5C])p.[moe](T)[sp].d(G)[sp].d(T)[sp].d([m5C])[sp].d(T)[sp].d(T)[sp].d(T)[sp].d(G)[sp].d(G)[sp].[moe](A)p.[moe](G)p.[moe]([m5C])p.[moe]([m5C])p.[moe]([m5C])[sp].[moe](A)}$$$$ (last 3' nucleoside missing) | 4 score 0-7
24 | RNA1{[moe](T)[sp].[moe]([m5C])p.[moe](T)p.[moe](G)[sp].d(T)[sp].d([m5C])[sp].d(T)[sp].d(T)[sp].d(T)[sp].d(G)[sp].d(G)[sp].d(A)[sp].[moe](G)p.[moe]([m5C])p.[moe]([m5C])p.[moe]([m5C])[sp].[moe](A)}$$$$ (last 3' nucleoside missing) | 5.25 score 0-7
25 | RNA1{[moe](T)[sp].[moe]([m5C])p.[moe](T)p.[moe](G)p.[moe](T)p.[moe]([m5C])[sp].d(T)[sp].d(T)[sp].d(T)[sp].d(G)[sp].d(G)[sp].d(A)[sp].d(G)[sp].d([m5C])[sp].[moe]([m5C])p.[moe]([m5C])[sp].[moe](A)}$$$$ (last 3' nucleoside missing) | 5.5 score 0-7
26 | RNA1{[moe](T)[sp].[moe]([m5C])p.[moe](T)p.[moe](G)p.[moe](T)p.[moe]([m5C])p.[moe](T)[sp].d(T)[sp].d(T)[sp].d(G)[sp].d(G)[sp].d(A)[sp].d(G)[sp].d([m5C])[sp].d([m5C])[sp].[moe]([m5C])[sp].[moe](A)}$$$$ (last 3' nucleoside missing) | 6.25 score 0-7

From the OligoGym collection
